Experimental data from patent US4436751A, “Nitrobenzyl monates antibacterial compounds” (Beecham Group Limited, priority 1980, dated 1984).
In brackets after ≈: the same amount, converted by molar mass. Like-named read-outs stand apart in the source and are kept apart here.

Assays:
Type in all cases: cell-based
M. suipneumoniae TAM 6N = test: Anti-mycoplasmal MIC in vitro, Friis broth agarose (Table 1); settings: Mesomycoplasma hyopneumoniae, TAM6N, 144 h
E. coli ESS = test: Human bacteria MIC, nutrient agar with chocolated horse blood (Table 3); settings: Escherichia coli, 18 h
Protocol: (§1) The values were determined by serial dilutions in nutrient agar with 5% chocolated horse blood after incubations for 18 hours at 37° C.

Strep. pneumoniae CN33 = test: as above; settings: Streptococcus pneumoniae
Protocol: as §1

[1] = tested on: Neisseria catarrhalis 1502; test: as above
Protocol: as §1

Strep. 641848-C = test: as above
Protocol: as §1

[2] = tested on: M. suipneumoniae PW/C/210; test: Anti-mycoplasmal MIC in vitro, Friis broth agarose (Table 1); settings: Mesomycoplasma hyopneumoniae, 144 h
Staph. aureus 152 = test: Veterinary bacteria MIC, Diagnostic Sensitivity Test Agar (Table 2); settings: Staphylococcus aureus, 152, 18 h
Protocol: (§2) The values were determined using a two fold serial dilutions in Diagnostic Sensitivity Test Agar with an inoculum of 10^4 organisms and incubation for 18 hours at 37° C.

S. typhimurium S18 = test: as above; settings: Salmonella enterica, TYPHIMURIUM, 18 h
Protocol: as §2

S. dublin S7 = test: as above; settings: Salmonella enterica, S7, 18 h
Protocol: as §2

E. Coli NCTC 10418 = test: as above; settings: Escherichia coli, NCTC10418, 18 h
Protocol: as §2

Staph. aureus Oxford = test: as above; settings: Staphylococcus aureus, 18 h
Protocol: as §2

Strep. dylgalactiae SPD1 = test: as above; settings: 18 h
Protocol: as §2

Strep. agalactiae SPA1 = test: as above; settings: Streptococcus agalactiae
Protocol: as §2

Past. multocida PA2 = test: as above; settings: Pasteurella multocida
Protocol: as §2

Strep. uberis SPO1 = test: as above; settings: Streptococcus uberis
Protocol: as §2

[3] = tested on: Corynebacterium pyogenes CY1; test: as above; settings: Trueperella pyogenes, CY1, 18 h
Protocol: as §2

Past. haemolytica PA5 = test: as above; settings: Mannheimia haemolytica
Protocol: as §2

[4] = tested on: Erysipelothrix rhusiopathiae NCTC 8163; test: as above
Protocol: as §2

[5] = tested on: Strep. suis (group D) SPS11; test: as above; settings: Streptococcus suis
Protocol: as §2

E. Coli E1 = test: as above; settings: Escherichia coli, 18 h
Protocol: as §2

Past. multocida PA1 = test: as above; settings: Pasteurella multocida
Protocol: as §2

Bord. bronchiseptica BO8 = test: as above; settings: Bordetella bronchiseptica, BO8, 18 h
Protocol: as §2

Bord. bronchiseptica BO9 = test: as above; settings: Bordetella bronchiseptica
Protocol: as §2

Staph. aureus B4 = test: as above; settings: Staphylococcus aureus
Protocol: as §2

[6] = tested on: M. suipneumoniae NCTC 10110; test: Anti-mycoplasmal MIC in vitro, Friis broth agarose (Table 1); settings: Mesomycoplasma hyopneumoniae, NCTC10110, 144 h
[7] = tested on: M. bovigenitalium ATOC 14173; test: as above; settings: 144 h
M. bovis RCTC 10131 = test: microbe, parasite or virus in culture; settings: RCTC10131, 144 h
Strep. 2733-B = test: Human bacteria MIC, nutrient agar with chocolated horse blood (Table 3); settings: 18 h
Protocol: as §1

[8] = Erysipelothrix rhusiopathiae, NCTC8163, 18 h

## C/C(=C\C(=O)OCc1cccc([N+](=O)[O-])c1C)CC1OCC(CC2OC2C(C)C(C)O)C(O)C1O (centres unmarked) [Example 8, 2-methyl-3-nitrobenzyl monate A]
M. suipneumoniae TAM 6N; M. suipneumoniae TAM 6N, in vitro, 6 days 37° C., read-out: MIC
  MIC: 0.25 µg/mL (≈ 0.507 µM)
E. coli ESS
  MIC: 1 µg/mL (≈ 2.03 µM)
Strep. pneumoniae CN33; Strep. pneumoniae CN33, nutrient agar 5% chocolated horse blood, 18 hours 37° C., read-out: MIC
  MIC: 0.5 µg/mL (≈ 1.01 µM)
[1]; Neisseria catarrhalis 1502, nutrient agar 5% chocolated horse blood, 18 hours 37° C., read-out: MIC
  MIC: 0.25 µg/mL (≈ 0.507 µM)
Strep. 641848-C; Strep. 641848-C, nutrient agar 5% chocolated horse blood, 18 hours 37° C., read-out: MIC
  MIC: 0.5 µg/mL (≈ 1.01 µM)
[2]
  MIC: 0.1 µg/mL (≈ 0.203 µM)
Staph. aureus 152
  MIC: 0.312 µg/mL (≈ 0.632 µM)
S. typhimurium S18
  MIC: > 80 µg/mL
S. dublin S7
  MIC: > 80 µg/mL
E. Coli NCTC 10418
  MIC: > 80 µg/mL
Staph. aureus Oxford
  MIC: 0.312 µg/mL (≈ 0.632 µM)
Strep. dylgalactiae SPD1
  MIC: 0.312 µg/mL (≈ 0.632 µM)
Strep. agalactiae SPA1; Strep. agalactiae SPA1, DST Agar, 10^4 organisms, 18 hours 37° C., read-out: MIC
  MIC: 0.625 µg/mL (≈ 1.27 µM)
Past. multocida PA2; Past. multocida PA2, DST Agar, 10^4 organisms, 18 hours 37° C., read-out: MIC
  MIC: 1.25 µg/mL (≈ 2.53 µM)
Strep. uberis SPO1; Strep. uberis SPO1, DST Agar, 10^4 organisms, 18 hours 37° C., read-out: MIC
  MIC: 0.07 µg/mL (≈ 0.142 µM)
[3]
  MIC: > 80 µg/mL
Past. haemolytica PA5; Past. haemolytica PA5, DST Agar, 10^4 organisms, 18 hours 37° C., read-out: MIC
  MIC: 10 µg/mL (≈ 20.3 µM)
[4]; NCTC8163, Erysipelothrix rhusiopathiae NCTC 8163, DST Agar, 10^4 organisms, 18 hours 37° C., read-out: MIC
  MIC: 20 µg/mL (≈ 40.5 µM)
[5]; Strep. suis (group D) SPS11, DST Agar, 10^4 organisms, 18 hours 37° C., read-out: MIC
  MIC: 5 µg/mL (≈ 10.1 µM)
E. Coli E1
  MIC: > 80 µg/mL
Past. multocida PA1; Past. multocida PA1, DST Agar, 10^4 organisms, 18 hours 37° C., read-out: MIC
  MIC: 1.25 µg/mL (≈ 2.53 µM)
Bord. bronchiseptica BO8
  MIC: 40 µg/mL (≈ 81 µM)
Bord. bronchiseptica BO9; Bord. bronchiseptica BO9, DST Agar, 10^4 organisms, 18 hours 37° C., read-out: MIC
  MIC: 5 µg/mL (≈ 10.1 µM)
Staph. aureus B4; Staph. aureus B4, DST Agar, 10^4 organisms, 18 hours 37° C., read-out: MIC
  MIC: 0.625 µg/mL (≈ 1.27 µM)
[6]
  MIC: 0.1 µg/mL (≈ 0.203 µM)
[7]; M. bovigenitalium ATOC 14173, in vitro, 6 days 37° C., read-out: MIC
  MIC: 0.025 µg/mL (≈ 0.0507 µM)
M. bovis RCTC 10131
  MIC: < 0.01 µg/mL

## C/C(=C\C(=O)OCc1ccc([N+](=O)[O-])c([N+](=O)[O-])c1)CC1OCC(CC2OC2C(C)C(C)O)C(O)C1O (centres unmarked) [Example 9, 3,4-dinitrobenzyl monate A]
M. suipneumoniae TAM 6N
  MIC: 0.5 µg/mL (≈ 0.953 µM)
E. coli ESS
  MIC: 1 µg/mL (≈ 1.91 µM)
Strep. pneumoniae CN33; CN33, 18 h
  MIC: 2.5 µg/mL (≈ 4.77 µM)
Strep. 2733-B
  MIC: 2.5 µg/mL (≈ 4.77 µM)
[1]; Neisseria, 1502, 18 h
  MIC: 0.05 µg/mL (≈ 0.0953 µM)
Strep. 641848-C; 18 h
  MIC: 2.5 µg/mL (≈ 4.77 µM)
[2]
  MIC: 0.25 µg/mL (≈ 0.477 µM)
Staph. aureus 152
  MIC: 0.312 µg/mL (≈ 0.595 µM)
S. typhimurium S18
  MIC: 80 µg/mL (≈ 153 µM)
S. dublin S7
  MIC: > 80 µg/mL
E. Coli NCTC 10418
  MIC: 80 µg/mL (≈ 153 µM)
Staph. aureus Oxford
  MIC: 0.312 µg/mL (≈ 0.595 µM)
Strep. dylgalactiae SPD1
  MIC: 0.07 µg/mL (≈ 0.133 µM)
Strep. agalactiae SPA1; SPA1, 18 h
  MIC: 0.312 µg/mL (≈ 0.595 µM)
Past. multocida PA2; PA2, 18 h
  MIC: 0.156 µg/mL (≈ 0.297 µM)
Strep. uberis SPO1; SPO1, 18 h
  MIC: 0.156 µg/mL (≈ 0.297 µM)
[3]
  MIC: > 80 µg/mL
Past. haemolytica PA5; PA5, 18 h
  MIC: 5 µg/mL (≈ 9.53 µM)
[4]; [8]
  MIC: 40 µg/mL (≈ 76.3 µM)
[5]; 18 h
  MIC: 5 µg/mL (≈ 9.53 µM)
E. Coli E1
  MIC: 80 µg/mL (≈ 153 µM)
Past. multocida PA1; PA1, 18 h
  MIC: 0.625 µg/mL (≈ 1.19 µM)
Bord. bronchiseptica BO8
  MIC: 10 µg/mL (≈ 19.1 µM)
Bord. bronchiseptica BO9; BO9, 18 h
  MIC: 5 µg/mL (≈ 9.53 µM)
Staph. aureus B4; B4, 18 h
  MIC: 0.625 µg/mL (≈ 1.19 µM)
[6]
  MIC: 0.5 µg/mL (≈ 0.953 µM)
[7]
  MIC: ≤ 0.01 µg/mL
M. bovis RCTC 10131
  MIC: ≤ 0.01 µg/mL

## C/C(=C\C(=O)OCc1ccc([N+](=O)[O-])cc1[N+](=O)[O-])CC1OCC(CC2OC2C(C)C(C)O)C(O)C1O (centres unmarked) [Example 10, 2,4-dinitrobenzyl monate A]
M. suipneumoniae TAM 6N
  MIC: 1 µg/mL (≈ 1.91 µM)
E. coli ESS
  MIC: 2.5 µg/mL (≈ 4.77 µM)
Strep. pneumoniae CN33; CN33, 18 h
  MIC: 2.5 µg/mL (≈ 4.77 µM)
Strep. 2733-B
  MIC: 2.5 µg/mL (≈ 4.77 µM)
[1]; Neisseria, 1502, 18 h
  MIC: 0.05 µg/mL (≈ 0.0953 µM)
Strep. 641848-C; 18 h
  MIC: 2.5 µg/mL (≈ 4.77 µM)
[2]
  MIC: 0.5 µg/mL (≈ 0.953 µM)
Staph. aureus 152
  MIC: 0.625 µg/mL (≈ 1.19 µM)
S. typhimurium S18
  MIC: > 80 µg/mL
S. dublin S7
  MIC: > 80 µg/mL
E. Coli NCTC 10418
  MIC: > 80 µg/mL
Staph. aureus Oxford
  MIC: 0.625 µg/mL (≈ 1.19 µM)
Strep. dylgalactiae SPD1
  MIC: 0.312 µg/mL (≈ 0.595 µM)
Strep. agalactiae SPA1; SPA1, 18 h
  MIC: 1.25 µg/mL (≈ 2.38 µM)
Past. multocida PA2; PA2, 18 h
  MIC: 0.625 µg/mL (≈ 1.19 µM)
Strep. uberis SPO1; SPO1, 18 h
  MIC: 0.312 µg/mL (≈ 0.595 µM)
[3]
  MIC: > 80 µg/mL
Past. haemolytica PA5; PA5, 18 h
  MIC: 2.5 µg/mL (≈ 4.77 µM)
[4]; [8]
  MIC: 20 µg/mL (≈ 38.1 µM)
[5]; 18 h
  MIC: 5 µg/mL (≈ 9.53 µM)
E. Coli E1
  MIC: > 80 µg/mL
Past. multocida PA1; PA1, 18 h
  MIC: 2.5 µg/mL (≈ 4.77 µM)
Bord. bronchiseptica BO8
  MIC: 40 µg/mL (≈ 76.3 µM)
Bord. bronchiseptica BO9; BO9, 18 h
  MIC: 5 µg/mL (≈ 9.53 µM)
Staph. aureus B4; B4, 18 h
  MIC: 0.625 µg/mL (≈ 1.19 µM)
[6]
  MIC: 1 µg/mL (≈ 1.91 µM)
[7]
  MIC: 0.025 µg/mL (≈ 0.0477 µM)
M. bovis RCTC 10131
  MIC: ≤ 0.01 µg/mL
